Reference: the NIST ThermoML archive (doi:10.1021/je4005323)

Conditions: Liquid; for speed of sound: Pulse-echo method; for mass density: Vibrating tube method

CCCCCCCC/C=C\CCCCCCCC(=O)OC [methyl cis-9-octadecenoate]
Conditions | mass density, 293.15 K [kg/m3] | mass density, 303.15 K [kg/m3] | mass density, 313.15 K [kg/m3] | mass density, 323.15 K [kg/m3] | mass density, 333.15 K [kg/m3] | mass density, 343.15 K [kg/m3] | speed of sound, 283.15 K [m/s] | speed of sound, 303.15 K [m/s] | speed of sound, 323.15 K [m/s] | speed of sound, 343.15 K [m/s]
101.3 kPa | 873.8 | 866.3 | 859.6 | 852.4 | 844.8 | 837.8 | 1443.2 | 1370.5 | 1301.9 | 1235.8
10000 kPa | 880 | 872.8 | 865.8 | 858.9 | 851.7 | 845.2 | 1486.1 | 1416.8 | 1352.1 | 1289
20000 kPa | 885.3 | 878.4 | 871.7 | 865.1 | 858.3 | 851.9 | 1526.5 | 1460 | 1397.7 | 1338.1
30000 kPa | 890.6 | 883.9 | 877.5 | 870.9 | 864.2 | 858.1 | 1564.5 | 1502 | 1441.1 | 1383.7
40000 kPa | 895.5 | 888.9 | 882.5 | 876.1 | 869.7 | 864 | 1600.5 | 1540.9 | 1482.3 | 1426
50000 kPa | 900.1 | 893.7 | 887.5 | 881.1 | 875 | 869.5 | 1634.5 | 1578.3 | 1521.2 | 1466.7
60000 kPa | 904.5 | 898.3 | 892.2 | 886.2 | 880.1 | 874.6 | 1668.6 | 1613.7 | 1558.5 | 1505.4
70000 kPa | 908.9 | 902.7 | 896.7 | 891 | 884.9 | 879.5 | 1701 | 1647 | 1593.5 | 1542.2
80000 kPa | 912.6 | 906.9 | 901.2 | 895.5 | 889.4 | – | 1732.7 | 1678.8 | 1627.2 | –
90000 kPa | 916.9 | 910.9 | 905.2 | 899.7 | 893.9 | – | 1762.7 | 1709.5 | 1659.3 | –
100000 kPa | 920.7 | 915.4 | 909.7 | 904.1 | 898.2 | – | 1790.8 | 1739.7 | 1690.2 | –
110000 kPa | – | – | – | – | – | – | 1819.3 | 1768.5 | 1719.3 | –
120000 kPa | – | – | – | – | – | – | 1846 | 1796.4 | 1747.7 | –
130000 kPa | – | – | – | – | – | – | 1872.5 | 1821.2 | 1775.4 | –
140000 kPa | – | – | – | – | – | – | 1897.8 | 1848.1 | 1801.6 | –
150000 kPa | – | – | – | – | – | – | 1923.3 | 1874.2 | 1827.1 | –
160000 kPa | – | – | – | – | – | – | 1947.8 | 1899 | 1853 | –
170000 kPa | – | – | – | – | – | – | 1971.2 | 1923.1 | 1878.4 | –
180000 kPa | – | – | – | – | – | – | 1994.3 | 1947 | 1902.6 | –
190000 kPa | – | – | – | – | – | – | 2016.8 | 1970.3 | 1925.8 | –
200000 kPa | – | – | – | – | – | – | 2036.4 | 1992.7 | 1949.2 | –
